Experimental data as given in patent publication US20050112573A1, “Method of detecting toxic substance” (priority 2001, published 2005).

Test system: yeast genes (level of expressed mRNA)
Assay: DNA chip analysis of expressed mRNA of yeast genes after 2 h culture with a toxic chemical substance
Assay type: cell-based, Saccharomyces cerevisiae S288C
Method: Yeast (Saccharomyces cerevtisiae S288C (α SUC2mal mel gap2 CUP1)) were cultured at 25° C. on YPD medium (yeast extract 1%, polypepton 2%, glucose 2%). One of toxic chemical substances was added to the cell at logarithmic growth phase, and the cell was further cultured for two hours. Cell was cultured without any chemical substance in the same condition, and was used as control. Concentrations of the chemical substances were defined to inhibit the growth of the yeast but not lead to death.
After the completion of cultivation, the culture was centrifuged to collect the cells. To the cells, sodium acetate buffer (50 mM sodium acetate, 10 mM EDTA, 1% SDS) was added, and the mixture was shaken at 65° C. for five minutes, followed by returning to room temperature, and obtaining the supernatant, which procedure was repeated two times. To the supernatant, ½ amount of a solution of phenol/chloroform was added, and the mixture was centrifuged to give a supernatant, which was added with an equal amount of chloroform, and the mixture was centrifuged to give a supernatant. To the supernatant, an equal amount of isopropanol containing 0.3 M sodium acetate was added, and the mixture was allowed to stand at room temperature for 30 minutes, after which the mixture was centrifuged to give a sediment of the whole RNAs. Seventy % ethanol was added to the sediment, and the mixture was again centrifuged to give a sediment, which was then dried and dissolved in water. mRNA was isolated from the whole RNAs as followings. In view of the fact that a poly A chain is attached to the 3′ terminus of mRNA, a polynucleotide having a poly T structure which was immobilized on the surface of latex beads was used to trap the mRNA, and then the mRNA was washed and eluted with spine column (Oligotex-dT30<Super>mRNA Purification Kit, Takara). Reverse transcription of the mRNA was conducted with a reverse transcriptase (Super Script II Reverse Transcriptase; catalogue No. 18064-014, GibcoBRL) using fluorescence-labeled nucleotides to give cDNAs that were introduced with Cy3-dUTP or Cy5-dUTP during the reverse transcription.
The labeled cDNAs were dissolved in TE buffer (10 mM Tris-HCl/1 mM EDTA, pH8.0), and the solution was dropped on the DNA chip containing the whole genes of yeast (DNA Chip Research Inc. Japan) so that the cDNAs were hybridized on the DNA chip at 65° C. for over 12 hours. The fluoresces intensity of the DNA chip was read with a scanner, and the ratio relative to the fluorescence intensity resulting from the absence of chemical substance was estimated as the following, which is shown in Tables 1 to 9: [formula]
In the Tables, “Intensity” indicated in the rightmost column is a value of the level of expressed mRNA of each gene in control cells as divided by the average level of the expressions of the whole genes.

manganese ethylenebis(dithiocarbamate) [(8)]
The level of expressed mRNA in the presence of chemical substance/ (yeast gene YKL086W, ratio to control without chemical): 1.1
The level of expressed mRNA in the presence of chemical substance/The level of expressed mRNA in the absence of chemical substance (yeast gene YKL096W): 0.5
The level of expressed mRNA in the presence of chemical substance/ (yeast gene YKL151C, ratio to control without chemical substance, 2 h culture): 1.0
The level of expressed mRNA in the presence of chemical substance/ (yeast gene YKL153W, ratio to control without chemical substance, 2 h culture): 0.7
The level of expressed mRNA in the presence of chemical substance/The level of expressed mRNA in the absence of chemical substance (yeast gene YKL165C): 1.5
The level of expressed mRNA in the presence of chemical substance/The level of expressed mRNA in the absence of chemical substance (yeast gene YKL193C): 1.4
The level of expressed mRNA in the presence of chemical substance/ (yeast gene YKL195W, ratio to control without chemical substance, 2 h culture): 1.2
The level of expressed mRNA in the presence of chemical substance/in the absence of chemical substance (yeast gene YKR009C): 0.9
The level of expressed mRNA in the presence of chemical substance/ (yeast gene YKR091W, ratio to control without chemical): 1.3
The level of expressed mRNA in the presence of chemical substance/ (yeast gene YLR054C, ratio to control without chemical substance, 2 h culture): 1.1
The level of expressed mRNA in the presence of chemical substance/The level of expressed mRNA in the absence of chemical substance (yeast gene YLR120C): 0.9
The level of expressed mRNA in the presence of chemical substance/The level of expressed mRNA in the absence of chemical substance (yeast gene YLR136C): 1.1
The level of expressed mRNA in the presence of chemical substance/ (yeast gene YLR149C, ratio to control without chemical substance, 2 h culture): 1.1
The level of expressed mRNA in the presence of chemical substance/ (yeast gene YLR152C, ratio to control without chemical substance, 2 h culture): 1.2
The level of expressed mRNA in the presence of chemical substance/The level of expressed mRNA in the absence of chemical substance (yeast gene YLR178C): 0.9
The level of expressed mRNA in the presence of chemical substance/ (yeast gene YLR194C, ratio to control without chemical): 1.0
The level of expressed mRNA in the presence of chemical substance/The level of expressed mRNA in the absence of chemical substance (yeast gene YLR250W): 1.3
The level of expressed mRNA in the presence of chemical substance/ (yeast gene YLR324W, ratio to control without chemical substance, 2 h culture): 1.0
The level of expressed mRNA in the presence of chemical substance/The level of expressed mRNA in the absence of chemical substance (yeast gene YLR327C): 2.2
The level of expressed mRNA in the presence of chemical substance/ (yeast gene YLR350W, ratio to control without chemical substance, 2 h culture): 1.0
The level of expressed mRNA in the presence of chemical substance/in the absence of chemical substance (yeast gene YLR351C): 1.2
The level of expressed mRNA in the presence of chemical substance/The level of expressed mRNA in the absence of chemical substance (yeast gene YLR356W): 0.7
The level of expressed mRNA in the presence of chemical substance/The level of expressed mRNA in the absence of chemical substance (yeast gene YLR362W): 1.4
The level of expressed mRNA in the presence of chemical substance/in the absence of chemical substance (yeast gene YLR375W): 1.0
The level of expressed mRNA in the presence of chemical substance/ (yeast gene YLR387C, ratio to control without chemical substance, 2 h culture): 1.4
The level of expressed mRNA in the presence of chemical substance/The level of expressed mRNA in the absence of chemical substance (yeast gene YLR391W): 0.7
The level of expressed mRNA in the presence of chemical substance/The level of expressed mRNA in the absence of chemical substance (yeast gene YLR429W): 1.0
The level of expressed mRNA in the presence of chemical substance/ (yeast gene YLR460C, ratio to control without chemical substance, 2 h culture): 8.1
The level of expressed mRNA in the presence of chemical substance/ (yeast gene YML117W, ratio to control without chemical substance, 2 h culture): 0.7
The level of expressed mRNA in the presence of chemical substance/The level of expressed mRNA in the absence of chemical substance (yeast gene YMR004W): 1.0
The level of expressed mRNA in the presence of chemical substance/ (yeast gene YMR009W, ratio to control without chemical substance, 2 h culture): 1.4
The level of expressed mRNA in the presence of chemical substance/ (yeast gene YMR067C, ratio to control without chemical substance, 2 h culture): 1.1
The level of expressed mRNA in the presence of chemical substance/ (yeast gene YMR090W, ratio to control without chemical substance, 2 h culture): 3.9
The level of expressed mRNA in the presence of chemical substance/The level of expressed mRNA in the absence of chemical substance (yeast gene YMR094W): 1.0
The level of expressed mRNA in the presence of chemical substance/ (yeast gene YMR095C, ratio to control without chemical): 1.2
The level of expressed mRNA in the presence of chemical substance/ (yeast gene YMR097C, ratio to control without chemical substance, 2 h culture): 1.5
The level of expressed mRNA in the presence of chemical substance/ (yeast gene YMR102C, ratio to control without chemical substance, 2 h culture): 1.0
The level of expressed mRNA in the presence of chemical substance/The level of expressed mRNA in the absence of chemical substance (yeast gene YMR104C): 0.9
The level of expressed mRNA in the presence of chemical substance/ (yeast gene YMR107W, ratio to control without chemical substance, 2 h culture): 1.3
The level of expressed mRNA in the presence of chemical substance/ (yeast gene YMR180C, ratio to control without chemical substance, 2 h culture): 1.8
The level of expressed mRNA in the presence of chemical substance/ (yeast gene YMR184W, ratio to control without chemical substance, 2 h culture): 1.9
The level of expressed mRNA in the presence of chemical substance/ (yeast gene YMR191W, ratio to control without chemical substance, 2 h culture): 1.1
The level of expressed mRNA in the presence of chemical substance/The level of expressed mRNA in the absence of chemical substance (yeast gene YMR219W): 1.1
The level of expressed mRNA in the presence of chemical substance/The level of expressed mRNA in the absence of chemical substance (yeast gene YMR226C): 1.6
The level of expressed mRNA in the presence of chemical substance/in the absence of chemical substance (yeast gene YMR267W): 1.5
The level of expressed mRNA in the presence of chemical substance/The level of expressed mRNA in the absence of chemical substance (yeast gene YMR275C): 0.8
The level of expressed mRNA in the presence of chemical substance/The level of expressed mRNA in the absence of chemical substance (yeast gene YMR276W): 0.8
The level of expressed mRNA in the presence of chemical substance/in the absence of chemical substance (yeast gene YMR278W): 1.1
The level of expressed mRNA in the presence of chemical substance/in the absence of chemical substance (yeast gene YMR293C): 1.0
The level of expressed mRNA in the presence of chemical substance/ (yeast gene YMR295C, ratio to control without chemical substance, 2 h culture): 1.0
The level of expressed mRNA in the presence of chemical substance/The level of expressed mRNA in the absence of chemical substance (yeast gene YMR314W): 1.2
The level of expressed mRNA in the presence of chemical substance/ (yeast gene YMR316W, ratio to control without chemical substance, 2 h culture): 1.6
The level of expressed mRNA in the presence of chemical substance/The level of expressed mRNA in the absence of chemical substance (yeast gene YNL006W): 1.1
The level of expressed mRNA in the presence of chemical substance/The level of expressed mRNA in the absence of chemical substance (yeast gene YNL007C): 0.8
The level of expressed mRNA in the presence of chemical substance/ (yeast gene YNL044W, ratio to control without chemical substance, 2 h culture): 1.8
